Assay results: PubChem BioAssay AID1963846 (Molecular Pharmacology Branch, DTP, NCI, 2024)

System: 454973-116-R2-J3-PDC complex spheroid viability
Assay: Anticancer human tumor 454973-116-R2-J3-PDC patient-derived pancreatic carcinoma cell line growth inhibition [POLQ]
Conditions: for IC50: curve of first compound; for viability, T/C: stronger effect = lower value
Procedure: Multicellular complex tumor spheroid response to Polymerase (POL) inhibitors (novobiocin, ART-558, RP6685) in combination with a variety of drugs and investigational agents in selected tumor cell lines
The POL inhibitors (novobiocin, ART-558, and RP6685) were evaluated both individually and in combination with standard of care and investigational anticancer small molecules within a complex spheroid model of solid tumors. . Complex spheroids include a stromal component modeled by human endothelial cells (HUVEC) and fibroblasts modeled by human mesenchymal stem cells (MSCs). The concentration ranges selected for each drug and investigational agent were based upon clinically achievable concentrations if the clinical Cmax of the agent was known.
Compounds. The drugs and investigational agents: novobiocin (NSC847541), ART-558 (NSC835418), RP-6685 (NSC848927), peposertib (NSC802822), ceralasertib (NSC780249), elimusertib (NSC800525), camonsertib (NSC841442), AZD-1390 (NSC803789), olaparib (NSC753686), talazoparib (NSC767125), rucaparib (NSC756644), sotorasib (NSC818433), MRTX-1133 (NSC836407), SN-38 (NSC673596), topotecan (NSC609699), epotoside (NSC141540), doxorubicin (NSC123127), gemcitabine (NSC613327), 5-fluorouracil (NSC19893), paclitaxel (NSC125973), vemurafenib (NSC761431), MSA-2 (NSC828583), SN-011 (NSC837082), adavosertib (NSC754352), prexasertib (NSC758257), carboplatin (NSC241240) and oxaliplatin (NSC266046), were obtained from the National Cancer Institute (NCI) Developmental Therapeutics Program Chemical Repository (21). The FDA-approved anticancer drug set is available from the Developmental Therapeutics Program at https://dtp.cancer.gov/organization/dscb/obtaining/. […] The stock solutions were prepared in dimethyl sulfoxide (DMSO, Sigma-Aldrich, St. Louis, MO, cat. D2650), except for the platinum compounds which were prepared in saline (Quality Biological, Gaithersburg, MD, cat. 114-055-101), at 800-fold the tested concentration and stored at -70 degrees C prior to their use. All drugs and investigational agents were tested over a range starting from a high concentration at or near the clinical Cmax and decreasing in half-log increments. If the clinical Cmax for an agent had not been determined, the highest concentration tested was 10 microM, except for SN-38, which was tested at a high concentration of 1 microM.
Cell Culture. All cells were maintained in an incubator at 37 degrees C and 5% CO2 with 95% humidity. The PDC lines were cultured according to standard operating procedures established by the NCI PDMR (https://pdmr.cancer.gov). Table 3 of the manuscript, lists the cell lines along with the number of the three cell types plated to form the mct-spheroids and media for tumor cell growth. After thawing, all PDC lines, except 997537-175-T-J1-PDC and 415267-285-R-J2-PDC, were cultured in Matrigel-coated flasks prepared with a working solution of 1X Ham's F-12 nutrient mix, without supplementation (Thermo Fisher Scientific, cat. 11765054), 100 U/mL penicillin-streptomycin (Thermo Fisher Scientific, cat. 15140122), and 2.5% Matrigel (Corning Inc., Corning, NY, cat. 354248) for the first three passages. The two PDC lines 997537-175-T-J1-PDC and 415267-285-R-J2-PDC were cultured on uncoated flasks. The 857933-349-R-J2-PDC line was cultured in 6C/Colon 1B media containing advanced DMEM/F-12 (Thermo Fisher Scientific, cat. 12634028), 10 mM HEPES (Thermo Fisher Scientific, cat. 15630080), 1X GlutaMAX supplement (Thermo Fisher Scientific, cat. 35050061), 0.1 mg/mL primocin (InvivoGen, San Diego, CA, cat. ant-pm-2), 10% defined fetal bovine serum, heat inactivated (HyClone Laboratories Inc., Logan, UT, cat. SH30070.03HI), 50% L-WRN conditioned media (ATCC, cat. CRL-3276), 1.25 mM N-Acetyl-L-cysteine (Sigma-Aldrich, cat. A9165), 10 mM nicotinamide (Sigma-Aldrich, cat. N0636), 1X B-27 supplement (Thermo Fisher Scientific, cat. 17504044), 1X N-2 supplement (Thermo Fisher Scientific, cat. […]

[1] = second compound 0.0316 µM, first compound 0.0316 µM
[2] = second compound 0.0316 µM, first compound 0.1 µM
[3] = second compound 0.1 µM, first compound 0.0316 µM
[4] = second compound 0.1 µM, first compound 0.1 µM
[5] = second compound 0.316 µM, first compound 0.0316 µM
[6] = second compound 0.316 µM, first compound 0.1 µM
[7] = second compound 1 µM, first compound 0.0316 µM
[8] = second compound 1 µM, first compound 0.1 µM
[9] = second compound 3.16 µM, first compound 0.0316 µM
[10] = second compound 3.16 µM, first compound 0.1 µM
[11] = second compound 10 µM, first compound 0.0316 µM
[12] = second compound 10 µM, first compound 0.1 µM
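Note: spheroids exposed to drugs for seven days before measurement.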
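Throughout, for viability, T/C: percent viability relative to DMSO vehicle control wells taken as 100%.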

With `CCCS(=O)(=O)Nc1ccc(F)c(C(=O)c2c[nH]c3ncc(-c4ccc(Cl)cc4)cc23)c1F` + Nc1ccc(C#CCN(C(=O)Cc2ncc(C(F)(F)F)cc2C(F)(F)F)c2ccc(F)cc2)nn1 the IC50 (second compound 0.0316 µM) was 8.62 µM, the IC50 (second compound 0.1 µM) was 8.22 µM and the IC50 (second compound 0.316 µM) was 8.45 µM. It also gave an IC50 (second compound 1 µM) of 8.62 µM, an IC50 (second compound 3.16 µM) of 8.46 µM and an IC50 (second compound 10 µM) of 7.56 µM. The viability, T/C [1] was 106%, the viability, T/C [2] was 109% and the viability, T/C (second compound 0.0316 µM, first compound 0.316 µM) was 117%. It also gave a viability, T/C (second compound 0.0316 µM, first compound 1 µM) of 114%, a viability, T/C (second compound 0.0316 µM, first compound 3.16 µM) of 114% and a viability, T/C (second compound 0.0316 µM, first compound 10 µM) of 40.7%. It also gave a viability, T/C [3] of 104%, a viability, T/C [4] of 109% and a viability, T/C (second compound 0.1 µM, first compound 0.316 µM) of 108%. The viability, T/C (second compound 0.1 µM, first compound 1 µM) was 115%, the viability, T/C (second compound 0.1 µM, first compound 3.16 µM) was 113% and the viability, T/C (second compound 0.1 µM, first compound 10 µM) was 37.6%. The viability, T/C [5] was 106%, the viability, T/C [6] was 109% and the viability, T/C (second compound 0.316 µM, first compound 0.316 µM) was 110%. It also gave a viability, T/C (second compound 0.316 µM, first compound 1 µM) of 114%, a viability, T/C (second compound 0.316 µM, first compound 3.16 µM) of 120% and a viability, T/C (second compound 0.316 µM, first compound 10 µM) of 39.5%. It also gave a viability, T/C [7] of 112%, a viability, T/C [8] of 116% and a viability, T/C (second compound 1 µM, first compound 0.316 µM) of 116%. It also gave a viability, T/C (second compound 1 µM, first compound 1 µM) of 117%, a viability, T/C (second compound 1 µM, first compound 3.16 µM) of 114% and a viability, T/C (second compound 1 µM, first compound 10 µM) of 40.4%. For the same compound, the viability, T/C [9] was 116%, the viability, T/C [10] was 118% and the viability, T/C (second compound 3.16 µM, first compound 0.316 µM) was 112%. For the same compound, the viability, T/C (second compound 3.16 µM, first compound 1 µM) was 115%, the viability, T/C (second compound 3.16 µM, first compound 3.16 µM) was 113% and the viability, T/C (second compound 3.16 µM, first compound 10 µM) was 39.3%. It also gave a viability, T/C [11] of 133%, a viability, T/C [12] of 116% and a viability, T/C (second compound 10 µM, first compound 0.316 µM) of 117%. The viability, T/C (second compound 10 µM, first compound 1 µM) was 116%, the viability, T/C (second compound 10 µM, first compound 3.16 µM) was 116% and the viability, T/C (second compound 10 µM, first compound 10 µM) was 28.9%.
Work on `Cn1ncnc1[C@H]1c2n[nH]c(=O)c3cc(F)cc(c23)N[C@@H]1c1ccc(F)cc1` + Nc1ccc(C#CCN(C(=O)Cc2ncc(C(F)(F)F)cc2C(F)(F)F)c2ccc(F)cc2)nn1 yielded an IC50 (second compound 0.0316 µM) greater than 0.1 µM, an IC50 (second compound 0.1 µM) greater than 0.1 µM and an IC50 (second compound 0.316 µM) greater than 0.1 µM. For the same compound, the IC50 (second compound 1 µM) was greater than 0.1 µM, the IC50 (second compound 3.16 µM) was greater than 0.1 µM and the IC50 (second compound 10 µM) was greater than 0.1 µM. It also gave a viability, T/C (second compound 0.0316 µM, first compound 0.000316 µM) of 107%, a viability, T/C (second compound 0.0316 µM, first compound 0.001 µM) of 93.9% and a viability, T/C (second compound 0.0316 µM, first compound 0.00316 µM) of 98%. It also gave a viability, T/C (second compound 0.0316 µM, first compound 0.01 µM) of 90.9%, a viability, T/C [1] of 93.6% and a viability, T/C [2] of 82.3%. For the same compound, the viability, T/C (second compound 0.1 µM, first compound 0.000316 µM) was 108%, the viability, T/C (second compound 0.1 µM, first compound 0.001 µM) was 104% and the viability, T/C (second compound 0.1 µM, first compound 0.00316 µM) was 96.7%. The viability, T/C (second compound 0.1 µM, first compound 0.01 µM) was 98.9%, the viability, T/C [3] was 97.2% and the viability, T/C [4] was 79.9%. The viability, T/C (second compound 0.316 µM, first compound 0.000316 µM) was 105%, the viability, T/C (second compound 0.316 µM, first compound 0.001 µM) was 102% and the viability, T/C (second compound 0.316 µM, first compound 0.00316 µM) was 102%. It also gave a viability, T/C (second compound 0.316 µM, first compound 0.01 µM) of 92.3%, a viability, T/C [5] of 101% and a viability, T/C [6] of 89.2%. The viability, T/C (second compound 1 µM, first compound 0.000316 µM) was 109%, the viability, T/C (second compound 1 µM, first compound 0.001 µM) was 105% and the viability, T/C (second compound 1 µM, first compound 0.00316 µM) was 108%. The viability, T/C (second compound 1 µM, first compound 0.01 µM) was 105%, the viability, T/C [7] was 91.6% and the viability, T/C [8] was 82.9%. It also gave a viability, T/C (second compound 3.16 µM, first compound 0.000316 µM) of 111%, a viability, T/C (second compound 3.16 µM, first compound 0.001 µM) of 116% and a viability, T/C (second compound 3.16 µM, first compound 0.00316 µM) of 102%. For the same compound, the viability, T/C (second compound 3.16 µM, first compound 0.01 µM) was 100%, the viability, T/C [9] was 96.3% and the viability, T/C [10] was 84.7%. It also gave a viability, T/C (second compound 10 µM, first compound 0.000316 µM) of 112%, a viability, T/C (second compound 10 µM, first compound 0.001 µM) of 109% and a viability, T/C (second compound 10 µM, first compound 0.00316 µM) of 117%. It also gave a viability, T/C (second compound 10 µM, first compound 0.01 µM) of 107%, a viability, T/C [11] of 113% and a viability, T/C [12] of 95.8%.
